Measurements published in patent publication US6734186B1, “Compounds for the treatment of female sexual dysfunction” (Pfizer Inc., priority 1999, dated 2004).

What was measured:
[1] = system: isolated rabbit vagina; experiment: Enhancement of VIP-induced relaxation of precontracted isolated rabbit vagina by test agents; format: cell-based; conditions: for Percentage enhancement of VIP(Sequence No. 8)-induced relaxation: PDE inhibitor at selective dose, isolated rabbit vagina, 1 μM phenylephrine; for effect on VIP-induced and nerve-mediated relaxations of isolated tissue: at clinically relevant doses
Procedure: (§1) 3.7 (a). Rabbit vagina in vitro preparation:—Female New Zealand white rabbits (2.0-3.0 kg) were killed by cervical dislocation. The abdominal cavity was opened and the vagina excised. Tissue strips were mounted longitudinally in Wesley Co. 5 ml silanised organ chambers with braided silk sutures (6/0 gauge) at an initial resting tension of 1.5 g in Krebs bicarbonate buffer maintained at 37° C. and gassed with 95%O2/5%CO2. The upper ligature of each tissue strip was attached to a 10 g capacity force-displacement transducer and changes in isometric force were measured and recorded using a DART in vitro data capture system. Tissues were allowed to equilibrate for 1.5 hours and were regularly washed with Krebs.
(§2) Each tissue was contracted using 1 μM bath concentration of phenylephrine. […] Tissues then received either a test agent (eg NEP or PDE inhibitor) or DMSO vehicle (time matched control).
(§3) For the purpose of curve fitting the minimum relaxation response was constrained to 0% and the maximum relaxation response was allowed to free fit.

[2] = system: anaesthetised rabbit model of sexual arousal; experiment: Enhancement of VIP-induced increases in vaginal blood flow, anaesthetised rabbit model; format: in vivo; conditions: for effect on VIP-induced increases in vaginal blood flow: at clinically relevant doses
Text: (§4) A ventral midline incision was made, at the caudal end of the pubis, to expose the pubic area. Connective tissue was removed to expose the tunica of the clitoris, ensuring that the wall was free from small blood vessels. The external vaginal wall was also exposed by removing any connective tissue. One laser Doppler flow probe was inserted 3 cm into the vagina, so that half the probe shaft was still visible. A second probe was positioned so that it lay just above the external clitoral wall. The position of these probes was then adjusted until a signal was obtained. A second probe was placed just above the surface of a blood vessel on the external vaginal wall. Both probes were clamped in position.
(§5) Vaginal and clitoral blood flow was recorded either as numbers directly from the Flowmeter using Po-ne-mah data acquisition software (Ponemah Physiology Platform, Gould Instrument Systems Inc), or indirectly from Gould chart recorder trace. Calibration was set at the beginning of the experiment (0-125 ml/min/100 g tissue).
An initial infusion of Hepsaline (50UI/ml) was infused to act as a negative control.
(§6) NEP (Neutral Endopeptidase EC3.4.24.11; Sequence No. 1) inhibitors, phosphodiesterase type 5 (PDE5) inhibitors and NPY Y1 antagonists were made up in saline or 5% glucose solution (200 μl 50% glucose in 1.8 ml water for injection). PDEcAMP inhibitors were dissolved in a 40% ethanol solution (200 μl 50% glucose in 1.8 ml water/ethanol for injection).

[3] = system: anaesthetised rabbit model of sexual arousal; experiment: Enhancement of pelvic nerve stimulated (PNS) increases in vaginal blood flow, anaesthetised rabbit model; format: in vivo; conditions: for effect on pelvic nerve stimulated increases in vaginal blood flow: at clinically relevant doses
Text: (§7) A ventral midline incision was made into the abdominal cavity. The incision was about 5 cm in length just above the pubis. The fat and muscle was bluntly dissected away to reveal the hypogastric nerve which runs down the body cavity. It was essential to keep close to the side curve of the pubis wall in order to avoid damaging the femoral vein and artery which lie above the pubis. The sciatic and pelvic nerves lie deeper and were located after further dissection on the dorsal side of the rabbit. Once the sciatic nerve is identified, the pelvic nerve was easily located. The term pelvic nerve is loosely applied; anatomy books on the subject fail to identify the nerves in sufficient detail. However, stimulation of the nerve causes an increase in vaginal and clitoral blood flow, and innervation of the pelvic region. The pelvic nerve was freed away from surrounding tissue and a Harvard bipolar stimulating electrode was placed around the nerve. The nerve was slightly lifted to give some tension, then the electrode was secured in position. Approximately 1 ml of light paraffin oil was placed around the nerve and electrode. This acts as a protective lubricant to the nerve and prevents blood contamination of the electrode. The electrode was connected to a Grass S88 Stimulator. The pelvic nerve was stimulated using the following parameters: −5V, pulse width 0.5 ms, duration of stimulus 10 seconds and a frequency range of 2 to 16 Hz. Reproducible responses were obtained when the nerve was stimulated every 15-20 minutes.
(§8) A frequency response curve was determined at the start of each experiment in order to determine the optimum frequency to use as a sub-maximal response, normally 4 Hz. The compound(s) to be tested were infused, via the femoral vein, using a Harvard 22 infusion pump allowing a continuous 15 minute stimulation cycle.
as §4, §5, §6

[4] = system: isolated rabbit vagina; experiment: Electrical field stimulated (EFS) relaxation of isolated rabbit vagina; format: cell-based
Procedure: Rabbit vaginal strips were prepared as described in Section 3.7 (a). The tissue strips were mounted between two platinum electrodes placed at the top and bottom of the organ chamber approximately 4 cm apart. Each tissue was contracted using 1 μM bath concentration of phenylephrine. When the contractile response reached a stable plateau (15 minutes), the tissues underwent a pre-treatment electrical field stimulated (EFS) induced relaxation curve. This was performed between 40-60 volts using sequential frequencies of 2, 4, 8 and 16 Hz delivered as 10 second trains of 0.5 milli second pulse width. The tissues were allowed to return to base line pre-contractile tension between each frequency (5 minutes) and the size of the relaxation response recorded.
After completion of the pre-treatment EFS response curve, all tissues were washed for 15 minutes, allowing the tissues to return to the baseline tension. Tissues then received either a test agent (eg NEP or PDE inhibitor, nitric oxide synthase [NOS] inhibitor) or DMSO vehicle (time matched control). Tissues were re-contracted with phenylephrine (1 μM) 15 minutes after the addition of compound or vehicle and an EFS-induced relaxation response curve determined as described above. […]

[5] = system: anaesthetised rabbit model of sexual arousal; experiment: Enhancement of pelvic nerve stimulated increases in clitoral blood flow, anaesthetised rabbit model; format: in vivo
Text: as §7
as §8, with “cycle. […]” for “cycle.”
Vaginal and clitoral blood flow was recorded either as numbers directly from the Flowmeter using Po-ne-mah data acquisition software (Ponemah Physiology Platform, Gould Instrument Systems Inc), or indirectly from Gould chart recorder trace. […]

[6] = system: isolated rabbit vagina; experiment: Relaxation of precontracted (1 μM phenylephrine) isolated rabbit vaginal strips; format: cell-based; conditions: Oryctolagus cuniculus, precontracted with 1 μM phenylephrine
Procedure: as §1, §2, §3

[7] = system: anaesthetised rabbit model of sexual arousal; experiment: Increase in clitoral blood flow after iv infusion of vasoactive agents, anaesthetised rabbit model; format: in vivo; conditions: forskolin 40 nmol/kg iv
Text: as §4, §5

Cc1nc(O)c(C#N)cc1-c1ccncc1 [FIII, Milrinone]
Percentage enhancement of VIP(Sequence No. 8)-induced relaxation [1]: 220% | potentiation of VIP EC50 values ([1]; inhibitor at 3.4 μM): 220%

COc1ccc(C2CNC(=O)C2)cc1OC1CCCC1 (centres unmarked) [FIV, Rolipram]
Percentage enhancement of VIP(Sequence No. 8)-induced relaxation [1]: 160% | potentiation of VIP EC50 values ([1]; inhibitor at 686 nM): 160%

COc1ccc(Cc2nc3c(ncn3C(CCCc3ccccc3)C(C)=O)c(=O)[nH]2)cc1OC (centres unmarked) [FII, 9-(1-acetyl-4-phenylbutyl)-2-[(3,4-dimethoxyphenyl)methyl]-1,9-dihydro-6H-purin-6-one]
enhancement of peak increase in blood flow induced by VIP-stimulation ([2]; 200 μg/kg): circa 15±3% | enhancement of duration of VIP-induced increases in peak vaginal blood flow ([2]; VIP 60 μg/kg, measured at 50% amplitude): over 100% | effect on VIP-induced increases in vaginal blood flow [2]: enhances | effect on VIP-induced enhanced vaginal blood flow ([2]; inhibitor 25 μg/kg iv bolus, VIP 60 μg/kg iv bolus): potentiates the duration | Percentage enhancement of VIP(Sequence No. 8)-induced relaxation [1]: 130% | potentiation of VIP EC50 values ([1]; inhibitor at 8 nM): 130% | enhancement of peak increase in blood flow induced by pelvic nerve stimulation ([3]; 200 μg/kg, 4 Hz): circa 15±3% | enhancement of peak increase in PNS vaginal blood flow ([3]; 500 μg/kg iv, 4 Hz): 86.8±21.9% | effect on pelvic nerve stimulated increases in vaginal blood flow [3]: enhances

NC(=NCCC[C@H](N)C(=O)O)N[N+](=O)[O-] [L-NOARG]
inhibition of EFS-induced relaxations ([4]; 300 μM): 50%

C=CCC(CC1(C(=O)NC2CCCC(C(=O)O)C2)CCCC1)C(=O)O (centres unmarked) [FVI, cyclohexanecarboxylic acid, 3-[[[1-(2-carboxy-4-pentenyl)cyclopentyl]carbonyl]amino]-]
increase in duration of VIP-induced elevation of vaginal blood flow ([2]; VIP dose producing maximal flow increases): circa 80% | duration of VIP-induced elevation in presence of inhibitor ([2]; VIP dose producing maximal flow increases, 11 minutes without inhibitor): 20 min | effect on VIP-induced increases in vaginal blood flow [2]: enhance | effect on VIP-induced enhanced vaginal blood flow ([2]; maximal VIP 60 μg/kg): only potentiate the duration | effect on VIP-induced enhanced vaginal blood flow ([2]; submaximal VIP 6.0 μg/kg): both potentiates the amplitude and prolongs the duration | potentiation of peak VIP-induced increase in vaginal blood flow ([2]; submaximal VIP 6.0 μg/kg): 95±6% | prolongation of duration of VIP-induced increase in vaginal blood flow ([2]; submaximal VIP 6.0 μg/kg): circa 140% | duration of VIP-induced increase in presence of inhibitor ([2]; submaximal VIP 6.0 μg/kg, 7 minutes without inhibitor): > 17 min | effect on VIP-induced and nerve-mediated relaxations of isolated tissue [1]: enhance | effect on non-nitric oxide NANC relaxation induced by EFS ([4]; 1 μM): enhances | enhancement of peak increase in PNS vaginal blood flow ([3]; 0.1 mg/kg iv, submaximal stimulation 4 Hz): 35.0±7.6% | enhancement of peak increase in PNS vaginal blood flow ([3]; 0.3 mg/kg iv, submaximal stimulation 4 Hz, listed as NEP inhibitor): 40% | effect on pelvic nerve stimulated increases in vaginal blood flow [3]: enhance | maximal enhancement of peak increase in PNS vaginal blood flow (up to) ([3]; compared to time matched control increases): up to 53% | effect on basal (unstimulated) vaginal blood flow ([3]; no pelvic nerve stimulation): no effect | enhancement of peak increase in PNS clitoral blood flow ([5]; 1.0 mg/kg iv, 4 Hz): 131% | maximal enhancement of peak increase in PNS clitoral blood flow (up to) ([5]; compared to vehicle control increases): up to 131% | effect on basal (unstimulated) clitoral blood flow ([5]; no pelvic nerve stimulation): no effect

C=CCC(CC1(C(=O)NC2CCCC(C(=O)OCC)C2)CCCC1)C(=O)O (centres unmarked) [FV, cyclohexanecarboxylic acid, 3-[[[1-(2-carboxy-4-pentenyl)cyclopentyl]carbonyl]amino]-,1-ethyl ester]
effect on VIP-induced increases in vaginal blood flow [2]: enhance | effect on VIP-induced and nerve-mediated relaxations of isolated tissue [1]: enhance | effect on pelvic nerve stimulated increases in vaginal blood flow [3]: enhance

C=C[C@@]1(C)CC(=O)[C@]2(O)[C@@]3(C)[C@@H](O)CCC(C)(C)[C@@H]3[C@H](O)[C@H](OC(C)=O)[C@@]2(C)O1 [forskolin]
IC50 ([6]; FIG. 4c): ~300 nM | EC50 ([6]; read-out: EC50 for relaxation in isolated vaginal tissue): 320 ± 20 nM | increase in clitoral blood flow [7]: 156%
